In ChEMBL document CHEMBL1201862, “PubChem BioAssay data set” (2004):
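Following 48 hours of exposure in 96-well plates, responses at five concentrations were used to interpolate endpoints linearly. At the GI50, growth is halved.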 Activity calls are given as the source filed them. Rule as the data show it: active = GI50 up to about 1.1 µM and inactive = higher.

Assays:
Assay in all cases: NCI tumour cell line growth inhibition, 48 h
SK-MEL-28 = system: SK-MEL-28
IGROV-1 = system: IGROV-1
NCI-H226 = system: NCI-H226
RPMI-8226 = system: RPMI-8226
MOLT-4 = system: MOLT-4
HT-29 = system: HT-29
LXFL 529 = system: LXFL 529
UACC-62 = system: UACC-62
UACC-257 = system: UACC-257
ACHN = system: ACHN
SF-539 = system: SF-539
SK-MEL-2 = system: SK-MEL-2
OVCAR-3 = system: OVCAR-3
HL-60 = system: HL-60
LOX IMVI = system: LOX IMVI
HOP-62 = system: HOP-62
A498 = system: A498
T47D = system: T47D
MCF7 = system: MCF7
BT-549 = system: BT-549

Measured: GI50

COC(=O)c1cc(OC(C)=O)c2c(OC)ccc(OC)c2c1
inactive: SK-MEL-28 > 100 µM | IGROV-1 > 100 µM | NCI-H226 > 100 µM | RPMI-8226 > 100 µM | MOLT-4 60.8 µM | HT-29 47.9 µM | LXFL 529 > 100 µM | UACC-62 > 100 µM | UACC-257 > 100 µM | ACHN > 100 µM | SF-539 > 100 µM | SK-MEL-2 > 100 µM | OVCAR-3 > 100 µM

O=C1CCN(CCC(F)(F)C(F)(F)C(F)(F)C(F)(F)F)C(=S)N1
inactive: SK-MEL-28 > 100 µM | IGROV-1 > 100 µM | NCI-H226 > 100 µM | RPMI-8226 > 100 µM | MOLT-4 > 100 µM | HT-29 > 100 µM | LXFL 529 > 100 µM | UACC-62 > 100 µM | HL-60 > 100 µM | ACHN > 100 µM | SF-539 > 100 µM | LOX IMVI > 100 µM | SK-MEL-2 > 100 µM | HOP-62 > 100 µM | OVCAR-3 > 100 µM

COc1cc(C(=O)O)cc2c1[nH]c1ccccc12 [MUKOEIC ACID]
inactive: SK-MEL-28 > 25 µM | IGROV-1 > 25 µM | NCI-H226 > 25 µM | RPMI-8226 > 25 µM | MOLT-4 > 25 µM | HT-29 > 25 µM | LXFL 529 > 25 µM | UACC-62 > 25 µM | HL-60 > 25 µM | ACHN > 25 µM | SF-539 > 25 µM | LOX IMVI > 25 µM | SK-MEL-2 > 25 µM | HOP-62 > 25 µM | OVCAR-3 > 25 µM

Cc1ccc(C2=C(c3ccccc3)C(=O)C(c3ccccc3)=C2c2ccc(C)cc2)cc1
inactive: SK-MEL-28 21.9 µM | IGROV-1 > 100 µM | A498 > 100 µM | NCI-H226 65.5 µM | RPMI-8226 29.1 µM | MOLT-4 14.5 µM | HT-29 33.5 µM | LXFL 529 68.7 µM | UACC-257 39.4 µM | ACHN 32.3 µM | SF-539 18.3 µM | SK-MEL-2 6.79 µM | HOP-62 > 100 µM

Cn1c2c(c3ccccc31)CCN(CCCN1CCN(c3cccc(Cl)c3)CC1)C2=O
inactive: SK-MEL-28 17.4 µM | IGROV-1 26.4 µM | A498 3.05 µM | RPMI-8226 12.2 µM | MOLT-4 11.6 µM | HT-29 12.5 µM | LXFL 529 16.2 µM | UACC-62 17.4 µM | HL-60 6.85 µM | ACHN 10.9 µM | SF-539 18.1 µM | LOX IMVI 20.2 µM | HOP-62 18.7 µM

CCOC(=O)Cn1c(=O)n(C)c(=O)c2c1ncn2Cc1ccccc1
inactive: SK-MEL-28 > 100 µM | IGROV-1 > 100 µM | A498 > 100 µM | NCI-H226 > 100 µM | RPMI-8226 > 100 µM | MOLT-4 > 100 µM | HT-29 > 100 µM | LXFL 529 > 100 µM | UACC-62 > 100 µM | ACHN > 100 µM | SF-539 > 100 µM | SK-MEL-2 > 100 µM | HOP-62 > 100 µM | OVCAR-3 > 100 µM

CC(C)=Cc1cc(C(=O)NCCNC(=O)c2cc(C=C(C)C)nc(NC#N)n2)nc(NC#N)n1
inactive: SK-MEL-28 > 100 µM | IGROV-1 > 100 µM | A498 > 100 µM | NCI-H226 > 100 µM | RPMI-8226 > 100 µM | MOLT-4 > 100 µM | HT-29 > 100 µM | LXFL 529 > 100 µM | UACC-62 > 100 µM | HL-60 > 100 µM | UACC-257 > 100 µM | ACHN > 100 µM | SF-539 > 100 µM | LOX IMVI > 100 µM | HOP-62 > 100 µM | OVCAR-3 > 100 µM

O=C(CCc1n[nH]c(=S)o1)Nc1ccccc1C(F)(F)F
inactive: SK-MEL-28 > 100 µM | IGROV-1 > 100 µM | A498 > 100 µM | NCI-H226 > 100 µM | RPMI-8226 25.9 µM | MOLT-4 > 100 µM | HT-29 > 100 µM | LXFL 529 > 100 µM | UACC-62 > 100 µM | HL-60 > 100 µM | UACC-257 > 100 µM | ACHN > 100 µM | SF-539 > 100 µM | HOP-62 > 100 µM | OVCAR-3 > 100 µM

Cc1[nH]nc2c1C(=O)C=C(N(CCO)c1ccccc1)C2=O
inactive: SK-MEL-28 > 100 µM | IGROV-1 > 100 µM | NCI-H226 > 100 µM | RPMI-8226 > 100 µM | MOLT-4 > 100 µM | HT-29 > 100 µM | LXFL 529 > 100 µM | UACC-62 > 100 µM | HL-60 > 100 µM | UACC-257 > 100 µM | SF-539 > 100 µM | LOX IMVI 4.05 µM | OVCAR-3 > 100 µM

OCCCCn1cnc2c(O)ncnc21
inactive: SK-MEL-28 > 100 µM | IGROV-1 > 100 µM | A498 > 100 µM | NCI-H226 > 100 µM | RPMI-8226 > 100 µM | MOLT-4 > 100 µM | HT-29 > 100 µM | LXFL 529 > 100 µM | UACC-62 > 100 µM | HL-60 > 100 µM | UACC-257 > 100 µM | ACHN > 100 µM | SF-539 > 100 µM | LOX IMVI > 100 µM | HOP-62 > 100 µM | OVCAR-3 > 100 µM

O=C(CCCN1CCC2(CC1)C(=O)NC(=O)N2c1ccccc1)c1ccc(F)cc1
inactive: SK-MEL-28 > 100 µM | IGROV-1 > 100 µM | T47D > 100 µM | A498 > 100 µM | NCI-H226 > 100 µM | MCF7 > 100 µM | RPMI-8226 > 100 µM | MOLT-4 > 100 µM | HT-29 66.2 µM | UACC-62 > 100 µM | HL-60 > 100 µM | UACC-257 > 100 µM | ACHN > 100 µM | BT-549 > 100 µM | SF-539 > 100 µM | LOX IMVI > 100 µM | SK-MEL-2 > 100 µM | HOP-62 > 100 µM | OVCAR-3 > 100 µM

CCOP(=O)(/C=C\n1ccc(=O)[nH]c1=O)OCC
inactive: SK-MEL-28 > 100 µM | IGROV-1 > 100 µM | T47D > 100 µM | A498 > 100 µM | NCI-H226 > 100 µM | MCF7 > 100 µM | RPMI-8226 > 100 µM | MOLT-4 > 100 µM | HT-29 > 100 µM | UACC-62 > 100 µM | HL-60 > 100 µM | UACC-257 > 100 µM | ACHN > 100 µM | BT-549 > 100 µM | SF-539 > 100 µM | LOX IMVI > 100 µM | SK-MEL-2 > 100 µM | HOP-62 > 100 µM | OVCAR-3 > 100 µM

COc1cc(C(=O)Nc2cccc3ccccc23)c(Br)c(OC)c1OC
inactive: SK-MEL-28 89.9 µM | IGROV-1 81.8 µM | NCI-H226 36.3 µM | RPMI-8226 42.8 µM | MOLT-4 39.7 µM | HT-29 > 100 µM | LXFL 529 31.1 µM | UACC-62 45.2 µM | HL-60 24.2 µM | UACC-257 > 100 µM | ACHN 81.7 µM | SF-539 > 100 µM | LOX IMVI 80 µM | SK-MEL-2 > 100 µM | HOP-62 > 100 µM | OVCAR-3 > 100 µM
